According to patent publication US12590953B2, “Methods for screening cereblon modifying compounds” (CELGENE CORPORATION, priority 2018, dated 2026):
Entries after “also recorded” stand apart in the source; their conditions may differ.

How the values were obtained:
[1] = tested on: rabbit SALL4 zinc finger / rabbit cereblon; assay: In vitro ubiquitination of rabbit SALL4 zinc finger by rabbit cereblon; format: biochemical; conditions: rabbit zinc finger amino acids 357-385; with thalidomide
Experimental: Full length human cereblon, full length mouse cereblon, and full length rabbit cereblon were co-expressed with full length human DDB1 in SF9 insect cells in ESF921 medium in the presence of 50 uM zinc acetate. Cells were resuspended in buffer containing 50 mM Tris-HCl pH 7.5, 500 mM NaCl, 10 mM imidazole, 10% glycerol, 2 mM TCEP, 1× Protease Inhibitor Cocktail (San Diego Bioscience), and 40,000 U Benzonase (Novagen), and sonicated for 30 s. Lysate was clarified by high speed spin at 30,000 rpm for 30 minutes, and clarified lysate was incubated with Ni-NTA affinity resin (Qiagen) for 1 hour. Complex was eluted with buffer containing 500 mM imidazole, and the ZZ-domain-6×His tag removed by thrombin cleavage (Enzyme Research) overnight, combined with dialysis in 10 mM imidazole buffer. Cleaved eluate was incubated with Ni-NTA affinity resin (Qiagen), and the flow-through diluted to 200 mM NaCl for further purification over a Sephacryl S-400 16/60 column (GE Healthcare) in buffer containing 10 mM HEPES pH 7.0, 240 mM NaCl, and 3 mM TECP.
Purified E1, E2, ubiquitin, Cul4A-Rbx1, cereblon-DDB1, and GSPT1 proteins were used to reconstitute the ubiquitination of MBP-fused WT and mutant proteins in vitro. Substrate proteins purified by maltose affinity resin (NEB) were incubated at an approximate concentration of 30 uM. […]

SALL4 = target: T1, SALL4 (Homo sapiens, UniProt Q96SW2); assay: SALL4 immunohistochemistry in huCRBN mouse testis; format: in vivo; conditions: huCRBN mice, up to 1000 mg/kg for 7 days
T1 construct: from tissue; host or cells: testis of homozygous huCRBN knock-in mice
Experimental: The SALL4 and ZFP91 protein levels were examined by immunohistochemistry in rabbit, wild-type mouse, and humanized cereblon mouse testes. […] HuCRBN Mice were treated for 7 days and testis were collected and examined by immunohistochemistry (n=3 animals per treatment group per species).
Rabbit embryos were stained for SALL4, and mouse testis were stained for SALL4 and ZFP91. Immunohistochemistry (IHC) was performed on the Bond-III automated slide stainer (Leica Microsystems, Buffalo Grove, Ill.) using the Bond Polymer Refine Detection system (Leica Microsystems, DS9800). Formalin fixed paraffin embedded (FFPE) tissues were sectioned at four micron thick and deparaffinized on the Bond-Max instrument. Antigen retrieval was performed with Epitope Retrieval 2 (ER2, pH 9.0) for 20 min at 100° C. The slides were blocked for endogenous peroxidase activity with Peroxide Block for 5 minutes at room temperature. Sections were then incubated with the mouse monoclonal anti-SALL4 EE-30 antibody (Santa Cruz, sc-101147) at a 1:100 dilution for 60 min at room temperature, or with the rabbit monoclonal anti-ZFP91 antibody (Celgene custom clone 122-8-6) at 0.25 ug/ml. For mouse testis, primary antibodies were incubated for 15 min at room temperature, and Post-Primary and horseradish peroxidase (HRP) labeled Polymer were incubated at the instrument's default conditions. […]

T1 sequence (Q96SW2 whole entry): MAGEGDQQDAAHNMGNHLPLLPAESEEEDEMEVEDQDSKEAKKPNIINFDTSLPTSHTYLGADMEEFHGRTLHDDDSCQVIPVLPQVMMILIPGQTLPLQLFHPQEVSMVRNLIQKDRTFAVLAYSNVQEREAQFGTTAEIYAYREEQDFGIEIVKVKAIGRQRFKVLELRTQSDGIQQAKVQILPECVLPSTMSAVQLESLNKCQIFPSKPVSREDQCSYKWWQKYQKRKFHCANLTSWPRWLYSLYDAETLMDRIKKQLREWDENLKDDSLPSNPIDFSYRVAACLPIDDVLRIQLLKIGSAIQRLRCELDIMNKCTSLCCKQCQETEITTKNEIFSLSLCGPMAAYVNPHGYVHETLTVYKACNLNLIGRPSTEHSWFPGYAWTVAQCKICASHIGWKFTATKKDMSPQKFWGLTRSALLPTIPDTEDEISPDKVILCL
T1 sequence (Q3U1J4 whole entry partner): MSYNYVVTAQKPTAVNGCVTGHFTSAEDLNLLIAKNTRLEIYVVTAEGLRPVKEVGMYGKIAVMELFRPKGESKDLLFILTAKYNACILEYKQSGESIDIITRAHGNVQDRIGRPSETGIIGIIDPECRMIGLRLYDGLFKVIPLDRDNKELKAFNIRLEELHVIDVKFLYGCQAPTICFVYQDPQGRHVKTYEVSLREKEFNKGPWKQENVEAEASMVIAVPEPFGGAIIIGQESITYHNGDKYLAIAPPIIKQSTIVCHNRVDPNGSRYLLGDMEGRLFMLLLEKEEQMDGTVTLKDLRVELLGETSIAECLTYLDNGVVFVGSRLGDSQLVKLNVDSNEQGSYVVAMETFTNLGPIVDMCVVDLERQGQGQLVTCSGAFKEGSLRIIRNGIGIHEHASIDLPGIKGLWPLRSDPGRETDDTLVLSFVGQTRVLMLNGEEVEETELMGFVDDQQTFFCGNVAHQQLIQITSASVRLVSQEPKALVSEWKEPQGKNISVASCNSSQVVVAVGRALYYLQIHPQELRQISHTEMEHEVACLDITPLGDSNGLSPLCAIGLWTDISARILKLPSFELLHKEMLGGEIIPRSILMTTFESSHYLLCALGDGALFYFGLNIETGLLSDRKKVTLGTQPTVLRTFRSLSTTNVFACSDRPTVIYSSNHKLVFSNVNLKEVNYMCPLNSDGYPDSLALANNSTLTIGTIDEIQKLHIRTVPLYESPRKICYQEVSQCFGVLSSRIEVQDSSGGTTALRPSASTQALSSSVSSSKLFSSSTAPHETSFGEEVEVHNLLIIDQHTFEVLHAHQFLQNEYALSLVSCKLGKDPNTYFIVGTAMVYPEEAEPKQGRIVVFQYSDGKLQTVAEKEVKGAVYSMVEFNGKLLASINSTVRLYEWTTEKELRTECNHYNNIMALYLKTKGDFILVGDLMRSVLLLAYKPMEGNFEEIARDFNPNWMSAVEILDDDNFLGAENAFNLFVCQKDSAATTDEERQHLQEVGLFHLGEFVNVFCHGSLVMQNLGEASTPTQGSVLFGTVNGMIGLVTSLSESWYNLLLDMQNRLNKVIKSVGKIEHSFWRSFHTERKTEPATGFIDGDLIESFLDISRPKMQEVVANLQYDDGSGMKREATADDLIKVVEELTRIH

O=C1CCC(N2C(=O)c3ccccc3C2=O)C(=O)N1 (centres unmarked) [thalidomide]
Ubiquitination of rabbit SALL4 zinc finger (orthologous to human ZF2) by rabbit cereblon [1]: could be ubiquitinated by rabbit cereblon in a thalidomide-dependent manner | SALL4 protein levels in testis (SALL4): remain unchanged; also recorded: caused degradation of ZFP91 but not SALL4
